# Test results taken from patent publication US20110082037A1, “Adjuvant Compositions” (COGNIS IP MANAGEMENT GMBH, priority 2008, published 2011).
# Where a name gives a salt, the structure may show the parent alone.
# Experiments:
# [1] = tested on: Winter wheat (Triticum aestivum); assay: Greenhouse experiment: influence of adjuvants on glyphosate efficacy on wheat (fresh weight 21 DAT); assay type: in vivo; settings: adjuvant 0.25% w/v
# Experimental: (§1) Greenhouse experiments were conducted to investigate the potency of the mixtures of alkoxylated oligoglycosides and alkoxylated primary alcohols as adjuvants for glyphosate. Winter wheat (Triticum aestivum) was used as a model for difficult-to-wet grasses and black night-shade (Solanum nigrum) was used as a model plant with an easy-to-wet, but difficult-to-penetrate, leaf surface. Both were grown in a growth chamber under 14 hours of light, at 18/12(±0.5)° C. (day/night) temperature, and in 70/80(±5)% (day/night) relative humidity. Light was provided by high-pressure mercury lamps and fluorescent tubes to give 70 W/m^2 (PAR) at leaf level. The plants were grown in 11 cm diameter plastic pots filled with a mixture of sand and humic potting soil (1:2 by volume). The pots were placed on sub-irrigation matting which was wetted daily with half-strength nutrient solution. After emergence, the wheat seedlings were thinned to six plants/pot for the efficacy experiments. Black nightshade seedlings were thinned to one plant/pot. Black nightshade and wheat were treated at the three- and the four-leaf stage, respectively. The fresh weights of the plants were measured 14 days after treatment (DAT) for black nightshade and 21 DAT for wheat. The glyphosate solutions were applied with an air-pressured laboratory track sprayer with 1.2-mm nozzles fitted with a perforated (0.6 mm) whirling pin and delivering 200 L/ha at 303 kPa. These were added to the unformulated monoisopropylamine salt of glyphosate [MON 8717 (glyphosate IPA salt 648 gai/litre=2.84 M without adjuvant)] at a concentration of 0.25% (w/v). Demineralised water was used as the carrier.
# (§2) Based on previous work, these rates were 77.8 gae/hectare (equivalent to 2.3 mM at 200 litres/hectare) on wheat and 30.4 gae/hectare (equivalent to 0.9 mM) on black nightshade. The experiments were conducted as a randomised complete block with four replicates. Two separate experiments were conducted for each of the two plant species. The data was subjected to analysis of variance using the Genstat statistical package (Release 6.1 from Rothamsted Experimental Station). The performance of the products on both species was expressed as a percentage of the FW of untreated plants. Examples 1 to 8 are according to the invention, examples C1 to C12 serve as comparison.
# [2] = tested on: black nightshade SOLNI (Solanum Nigrum); assay: Greenhouse experiment: influence of adjuvants on glyphosate efficacy on black nightshade (fresh weight 14 DAT); assay type: in vivo; settings: adjuvant 0.25% w/v
# Experimental: as §1, §2
# [3] = average of trials 1 and 2, glyphosate 2.3 mM
# [4] = glyphosate 2.3 mM (77.8 g a.e./ha at 200 L/ha)
# [5] = 0.6 mM glyphosate (20.3 g a.e./ha at 200 L/ha)
# [6] = 0.9 mM glyphosate (30.4 g a.e./ha at 200 L/ha)
smiles,measurement,setting,value
"O=C(O)CNCP(=O)(O)O [Gly, monoisopropylamine salt of glyphosate]",Average % (FW as percentage of the FW of untreated plants),[1]; [3],78.3%
same,Average g FW,[1]; [3],18.15 g
same,Trial 1 g FW,[1]; [4],22.33 g
same,Trial 2 g FW,[1]; [4],13.97 g
same,Trial 2 % (FW as percentage of the FW of untreated plants),[2]; [5],84.5%
same,Trial 2 g FW,[2]; [5],14.66 g
same,Trial 1 % (FW as percentage of the FW of untreated plants),[2]; [6],35.1%
same,Trial 1 g FW,[2]; [6],5.59 g
